US6525001B1, “Substituted pyrimidine and pyridine herbicides” (Mid-American Commercialization Corporation, priority 1997, dated 2003)

Legend:
Format in all cases: in vivo
[1] = tested on: common ragweed (Ambrosia elatior); test: Test C; parameters: key: 0 was no effect; 100 was complete control
[2] = tested on: purple nutsedge (Cyperus rotundus); test: Test C; parameters: key: 0 was no effect; 100 was complete control
[3] = tested on: duck salad (Heteranthera limosa); test: Test B flood test; parameters: key: 0 is no effect; 10 is complete control
In short: (§1)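 Each value is a visual injury score relative to controls, with 10 meaning complete control and 0 no effect. Evaluation took place twelve to sixteen days after the 2-leaf-stage plants were treated and kept in the greenhouse.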

[4] = tested on: bamyardgrass (Echinochloa crus-galli); test: Test B flood test; parameters: key: 0 is no effect; 10 is complete control
In short: as §1

rice (Oryza sativa) = test: Test B flood test; parameters: key: 0 is no effect; 10 is complete control
In short: as §1

[5] = tested on: smallflower flatsedge (Cyperus difformis); test: Test B flood test; parameters: key: 0 is no effect; 10 is complete control
In short: as §1

[6] = tested on: blackgrass (Alopecurus myosuroides); test: Test B pre-/postemergence; parameters: key: 0 is no effect; 10 is complete control
In short: (§2)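 Response scores run from 0, meaning no effect, to 10, meaning complete control, assigned by eye relative to controls twelve to sixteen days after spraying. Treatment was both preemergence on planted seed and postemergence on plants at the 1- to 4-leaf stage.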

[7] = tested on: broadleaf signalgrass (Brachiaria decumbens); test: Test B pre-/postemergence; parameters: key: 0 is no effect; 10 is complete control
In short: as §2

[8] = tested on: field bindweed (Convolvulus arvensis); test: Test C; parameters: key: 0 was no effect; 100 was complete control
[9] = tested on: cocklebur (Xanthium strumarium); test: Test C; parameters: key: 0 was no effect; 100 was complete control
[10] = tested on: cotton (Gossypium hirsutum); test: Test C; parameters: key: 0 was no effect; 100 was complete control
[11] = Rate 62 g/ha, Postemergence (flood test)
[12] = Rate 125 g/ha, Postemergence section (flood test species)
[13] = Rate 250 g/ha, Postemergence (flood test species)
[14] = Rate 500 g/ha, Postemergence (flood test species)
[15] = Rate 125 g/ha, Postemergence, flood test

Cc1cnc(-n2ccc(C(F)(F)F)n2)nc1C(=O)c1cccc(OC(F)(F)F)c1 [Compound 66]
Plant response rating, Common ragweed ([1]; PREEMERGENCE, Rate 35 g/ha): 0
Plant response rating, Common ragweed ([1]; PREEMERGENCE, Rate 70 g/ha): 0
Plant response rating, Common ragweed ([1]; PREEMERGENCE, Rate 140 g/ha): 30
Plant response rating, Purple nutsedge ([2]; PREEMERGENCE, Rate 35 g/ha): 0
Plant response rating, Purple nutsedge ([2]; PREEMERGENCE, Rate 70 g/ha): 0
Plant response rating, Purple nutsedge ([2]; PREEMERGENCE, Rate 140 g/ha): 0
Ducksalad plant response rating [3, 11]: 2
Ducksalad plant response rating [3, 12]: 3
Plant response rating, Ducksalad [3, 13]: 5
Plant response rating, Ducksalad [3, 14]: 7
Barnyardgrass plant response rating [4, 11]: 3
Barnyardgrass plant response rating [4, 12]: 3
Plant response rating, Barnyardgrass [4, 13]: 4
Plant response rating, Barnyardgrass [4, 14]: 4
Rice plant response rating (rice (Oryza sativa); [11]): 0
Rice plant response rating (rice (Oryza sativa); [12]): 1
Plant response rating, Rice (rice (Oryza sativa); [13]): 1
Plant response rating, Rice (rice (Oryza sativa); [14]): 2
S. Flatsedge plant response rating [5, 11]: 6
S. Flatsedge plant response rating [5, 12]: 8
Plant response rating, S. Flatsedge [5, 13]: 8
Plant response rating, S. Flatsedge [5, 14]: 9
Plant response rating, Blackgrass ([6]; Preemergence, Rate 62 g/ha, scale of 0 to 10): 3
Blackgrass plant response rating ([6]; Rate 62 g/ha, Postemergence): 2
Blackgrass plant response rating ([6]; Rate 125 g/ha, Postemergence): 3
Plant response rating, Blackgrass ([6]; Rate 125 g/ha, Preemergence): 3
Plant response rating, Blackgrass ([6]; Rate 250 g/ha, Postemergence): 5
Plant response rating, Blackgrass ([6]; Rate 250 g/ha, Preemergence): 8
Plant response rating, Blackgrass ([6]; Rate 500 g/ha, Postemergence): 6
Plant response rating, Blackgrass ([6]; Rate 500 g/ha, Preemergence): 10
B. signalgrass plant response rating ([7]; Rate 62 g/ha, Postemergence): 2
B. signalgrass plant response rating ([7]; Rate 62 g/ha, Preemergence): 9
B. signalgrass plant response rating ([7]; Rate 125 g/ha, Postemergence): 3
Plant response rating, B. signalgrass ([7]; Rate 125 g/ha, Preemergence): 9
Plant response rating, B. signalgrass ([7]; Rate 250 g/ha, Postemergence): 4
Plant response rating, B. signalgrass ([7]; Rate 250 g/ha, Preemergence): 9
Plant response rating, B. signalgrass ([7]; Rate 500 g/ha, Postemergence): 5
Plant response rating, B. signalgrass ([7]; Rate 500 g/ha, Preemergence): 10
Plant response rating, Field bindweed ([8]; PREEMERGENCE, Rate 35 g/ha): 40
Plant response rating, Field bindweed ([8]; PREEMERGENCE, Rate 70 g/ha): 80
Plant response rating, Field bindweed ([8]; PREEMERGENCE, Rate 140 g/ha): 90
Plant response rating, Cocklebur ([9]; PREEMERGENCE, Rate 35 g/ha): 0
Plant response rating, Cocklebur ([9]; PREEMERGENCE, Rate 70 g/ha): 0
Plant response rating, Cocklebur ([9]; PREEMERGENCE, Rate 140 g/ha): 0
Plant response rating, Cotton ([10]; PREEMERGENCE, Rate 35 g/ha): 0
Plant response rating, Cotton ([10]; PREEMERGENCE, Rate 70 g/ha): 0
Plant response rating, Cotton ([10]; PREEMERGENCE, Rate 140 g/ha): 0

Cc1cnc(-c2ccc(C(F)(F)F)cc2)nc1Cn1ccc(C(F)(F)F)n1 [compound 9]
Plant response rating, Common ragweed ([1]; POSTEMERGENCE, Rate 70 g/ha): 30
Plant response rating, Common ragweed ([1]; POSTEMERGENCE, Rate 140 g/ha): 10
Plant response rating, Common ragweed ([1]; PREEMERGENCE, Rate 35 g/ha): 80
Plant response rating, Common ragweed ([1]; PREEMERGENCE, Rate 70 g/ha): 95
Plant response rating, Common ragweed ([1]; PREEMERGENCE, Rate 140 g/ha): 75
Plant response rating, Purple nutsedge ([2]; POSTEMERGENCE, Rate 35 g/ha): 5
Plant response rating, Purple nutsedge ([2]; POSTEMERGENCE, Rate 70 g/ha): 5
Plant response rating, Purple nutsedge ([2]; POSTEMERGENCE, Rate 140 g/ha): 5
Plant response rating, Purple nutsedge ([2]; PREEMERGENCE, Rate 35 g/ha): 0
Plant response rating, Purple nutsedge ([2]; PREEMERGENCE, Rate 70 g/ha): 0
Plant response rating, Purple nutsedge ([2]; PREEMERGENCE, Rate 140 g/ha): 0
Plant response rating, Ducksalad [3, 11]: 4
Plant response rating, Ducksalad [3, 15]: 6
Plant response rating, Ducksalad [3, 13]: 7
Plant response rating, Ducksalad [3, 14]: 6
Plant response rating, Barnyardgrass [4, 11]: 5
Plant response rating, Barnyardgrass [4, 15]: 5
Plant response rating, Barnyardgrass [4, 13]: 7
Plant response rating, Barnyardgrass [4, 14]: 8
Plant response rating, Rice (rice (Oryza sativa); [11]): 5
Plant response rating, Rice (rice (Oryza sativa); [15]): 6
Plant response rating, Rice (rice (Oryza sativa); [13]): 7
Plant response rating, Rice (rice (Oryza sativa); [14]): 8
Plant response rating, S. Flatsedge [5, 11]: 8
Plant response rating, S. Flatsedge [5, 15]: 9
Plant response rating, S. Flatsedge [5, 13]: 9
Plant response rating, S. Flatsedge [5, 14]: 9
Plant response rating, Blackgrass ([6]; Rate 62 g/ha, Postemergence): 3
Blackgrass plant response rating ([6]; Rate 62 g/ha, Preemergence): 4
Plant response rating, Blackgrass ([6]; Rate 125 g/ha, Postemergence): 8
Blackgrass plant response rating ([6]; Rate 125 g/ha, Preemergence): 9
Plant response rating, Blackgrass ([6]; Rate 250 g/ha, Postemergence): 8
Plant response rating, Blackgrass ([6]; Rate 250 g/ha, Preemergence): 10
Plant response rating, Blackgrass ([6]; Rate 500 g/ha, Postemergence): 9
Plant response rating, Blackgrass ([6]; Rate 500 g/ha, Preemergence): 10
Plant response rating, B. signalgrass ([7]; Rate 62 g/ha, Postemergence): 5
B. signalgrass plant response rating ([7]; Rate 62 g/ha, Preemergence): 8
Plant response rating, B. signalgrass ([7]; Rate 125 g/ha, Postemergence): 8
B. signalgrass plant response rating ([7]; Rate 125 g/ha, Preemergence): 9
Plant response rating, B. signalgrass ([7]; Rate 250 g/ha, Postemergence): 9
Plant response rating, B. signalgrass ([7]; Rate 250 g/ha, Preemergence): 10
Plant response rating, B. signalgrass ([7]; Rate 500 g/ha, Postemergence): 9
Plant response rating, B. signalgrass ([7]; Rate 500 g/ha, Preemergence): 10
Plant response rating, Field bindweed ([8]; POSTEMERGENCE, Rate 35 g/ha): 60
Plant response rating, Field bindweed ([8]; POSTEMERGENCE, Rate 70 g/ha): 70
Plant response rating, Field bindweed ([8]; POSTEMERGENCE, Rate 140 g/ha): 80
Plant response rating, Field bindweed ([8]; PREEMERGENCE, Rate 35 g/ha): 50
Plant response rating, Field bindweed ([8]; PREEMERGENCE, Rate 70 g/ha): 100
Plant response rating, Field bindweed ([8]; PREEMERGENCE, Rate 140 g/ha): 90
Plant response rating, Cocklebur ([9]; POSTEMERGENCE, Rate 35 g/ha): 60
Plant response rating, Cocklebur ([9]; POSTEMERGENCE, Rate 70 g/ha): 80
Plant response rating, Cocklebur ([9]; POSTEMERGENCE, Rate 140 g/ha): 80
Plant response rating, Cocklebur ([9]; PREEMERGENCE, Rate 35 g/ha): 0
Plant response rating, Cocklebur ([9]; PREEMERGENCE, Rate 70 g/ha): 0
Plant response rating, Cocklebur ([9]; PREEMERGENCE, Rate 140 g/ha): 0
Plant response rating, Cotton ([10]; POSTEMERGENCE, Rate 35 g/ha): 70
Plant response rating, Cotton ([10]; POSTEMERGENCE, Rate 70 g/ha): 80
Plant response rating, Cotton ([10]; POSTEMERGENCE, Rate 140 g/ha): 90
Plant response rating, Cotton ([10]; PREEMERGENCE, Rate 35 g/ha): 10
Plant response rating, Cotton ([10]; PREEMERGENCE, Rate 70 g/ha): 35
Plant response rating, Cotton ([10]; PREEMERGENCE, Rate 140 g/ha): 50
